Data: article PMC8622152, “Expression Profile and Ligand Screening of a Putative Odorant-Binding Protein, AcerOBP6, from the Asian Honeybee” (Insects, 2021)
Entries after “also recorded” stand apart in the source; their conditions may differ. Where two headings read alike, the source gives them in different places.

Legend:
antennae of forager bees = assay: EAG assay based on RNAi (dsOBP6 feeding); parameters: species or system Apis cerana cerana; conditions: for change of EAG response in dsOBP6 group versus controls: 48 h after feeding dsOBP6-2 dsRNA, p < 0.05
Method: The plasmid extracted in Section 2.3 was used as a template to generate 2 dsRNA fragments of AcerOBP6. Meanwhile, dsRNA was synthesized using a T7 RiboMAX™ Express RNAi System (Promega, Madison, WI, USA); the primers used for dsRNA generating are listed in Table S1. The final concentration of dsRNA generation was diluted to 2.5 μg/μL. The concentration and integrity of dsRNA were determined using NanoDrop and agarose gel electrophoresis (1%). Forager bees were collected and fed with AcerOBP6 dsRNA (8 μg for each bee), and then maintained in an artificial climate incubator (65–75% RH; 28 ± 0.4 °C). At the same time, the GFP dsRNA and 30% sugar were employed as the control groups. Each experiment group included 30 bees, and 3 biological repeats were performed. At times of 24, 48, and 96 h after feeding, the RNAi effects were verified by qRT-PCR.
The antennae of forager bees were dissected from the bottom and immediately fixed to both sides of a two-pronged electrode using Spectra 360 electrode gel (Parker Laboratories Inc., Fairfield, NJ, USA). The odorants were dissolved in liquid paraffin to final concentrations of 300 μg/μL, and liquid paraffin was adopted as a blank control. A filter paper strip (3 cm × 1cm) filled with 10 μL tested solution was prepared and put into the tube of Pasteur Pipette, which was connected with the gas feeder equipment. The stimulation time of each odor was 0.5 s and the interval was 30 s. Three technical repetitions were carried out, and ten antennae of female adults were tested for each compound. Finally, the EAGPro software (Syntech) was used to analyze the EAG response recordings.

AcerOBP6 = AcerOBP6 (Apis cerana cerana, UniProt A0A2A3ES84); assay type: binding; conditions: for binding affinity with AcerOBP6 (in words): competitive binding with 1-NPN, ligand up to 10 µM; for Ki: Ki = [IC50]/(1 + [1-NPN]/K1-NPN), read-out: Ki (dissociation constant); for Ki / IC50: AcerOBP6 1 µM, 1-NPN 1 µM; for IC50: concentration of ligand displacing 50% 1-NPN, ligand 1-10 µM, short dash: not possible to calculate the IC50 value
Method: Afterwards, the fluorescent probe N-phenyl-1-naphthylamine (1–NPN) was dissolved in methanol to yield a 1 mM stock solution. […] The binding constant of 1-NPN to AcerOBP6 (K1–NPN) was calculated using Scatchard plots of the binding data in GraphPad Prism 8.0.
Taking 1–NPN as the fluorescent reporter, we measured the binding affinity of each odorant by competitive binding assays using. All the 33 ligands (listed in Table S2) were dissolved in spectrally pure grade methanol. We titrated the odorants in a solution containing AcerOBP6 protein (1 μM) and 1–NPN (1 μM) to the final concentrations of 1–10 μM, respectively.

Sequence of AcerOBP6 (A0A2A3ES84 entry or part of it): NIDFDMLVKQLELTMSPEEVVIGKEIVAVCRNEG

CCCCCCCCCO [1-Nonanol]
change of EAG response in dsOBP6 group versus controls (antennae of forager bees): significantly decreased

CCCCCC(C)=O [2-Heptanone]
change of EAG response in dsOBP6 group versus controls (antennae of forager bees): significantly decreased; also recorded: significant change | EAG response of worker bee antennae (antennae of forager bees; odorant 300 µg/µL in liquid paraffin, 10 µL on filter paper, 0.5 s stimulation): strongest response; also recorded: strong EAG responses

CCOC(=O)/C=C/c1ccccc1 [Ethyl cinnamate]
binding affinity with AcerOBP6 (in words) (AcerOBP6): could not bind or had a weak binding affinity

CCCCC/C=C\C/C=C\CCCCCCCC(=O)OCC [Ethyl linoleate]
binding affinity with AcerOBP6 (in words) (AcerOBP6): could not bind or had a weak binding affinity

CCCCCCCC/C=C\CCCCCCCC(=O)OCC [Ethyl oleate]
binding affinity with AcerOBP6 (in words) (AcerOBP6): could not bind or had a weak binding affinity

CCOC(=O)/C=C/c1ccccc1 [Ethyl-trans-cinnamate]
Ki (AcerOBP6; listed as ethyl-trans-cinnamate): 3.7 µM | Ki (AcerOBP6): 3.74 µM | IC50 (AcerOBP6): 3.93 µM

CC12CCC(CC1)C(C)(C)O2 [Eucalyptol]
change of EAG response in dsOBP6 group versus controls (antennae of forager bees): significantly decreased

CC(=O)OCCC(C)C [Isoamyl acetate]
binding affinity with AcerOBP6 (in words) (AcerOBP6): could not bind or had a weak binding affinity

C=CC(C)(O)CCC=C(C)C (centres unmarked) [Linalool]
change of EAG response in dsOBP6 group versus controls (antennae of forager bees): significantly decreased

CC/C=C\C/C=C\C/C=C\CCCCCCCC(=O)OC [Methyl linolenate]
binding affinity with AcerOBP6 (in words) (AcerOBP6): could not bind or had a weak binding affinity

CCCCCCCC/C=C\CCCCCCCC(=O)OC [Methyl oleate]
binding affinity with AcerOBP6 (in words) (AcerOBP6): could not bind or had a weak binding affinity

CCCCCCCCCCCCCCCC(=O)OC [Methyl palmitate]
binding affinity with AcerOBP6 (in words) (AcerOBP6): could not bind or had a weak binding affinity | IC50 (AcerOBP6): > 10 µM

CCCCCCCCCCCCCCCCCC(=O)OC [Methyl stearate]
binding affinity with AcerOBP6 (in words) (AcerOBP6): could not bind or had a weak binding affinity

C=CC(=C)CCC=C(C)C [Myrcene]
change of EAG response in dsOBP6 group versus controls (antennae of forager bees): significantly decreased

CCCCCCOC(C)=O [hexyl acetate]
change of EAG response in dsOBP6 group versus controls (antennae of forager bees): significantly decreased

C/C1=C\CC/C(C)=C/CC(C)(C)/C=C/C1 [α-caryophllene]
binding affinity with AcerOBP6 (in words) (AcerOBP6): could not bind or had a weak binding affinity | IC50 (AcerOBP6): > 10 µM

CC/C=C\C/C=C\C/C=C\CCCCCCCC(=O)OCC [α-ethyl linolenic]
binding affinity with AcerOBP6 (in words) (AcerOBP6): could not bind or had a weak binding affinity | IC50 (AcerOBP6): > 10 µM

C=C/C(C)=C/C/C=C(\C)CCC=C(C)C [α-farnesene]
binding affinity with AcerOBP6 (in words) (AcerOBP6): could not bind or had a weak binding affinity | IC50 (AcerOBP6): > 10 µM

C=C/C(C)=C/CC=C(C)C [β-ocimene]
Ki (AcerOBP6): 5.27 µM | IC50 (AcerOBP6): 5.54 µM | change of EAG response in dsOBP6 group versus controls (antennae of forager bees): significantly decreased

(+) -Cinene
Ki (AcerOBP6): 5.26 µM | IC50 (AcerOBP6): 5.53 µM | change of EAG response in dsOBP6 group versus controls (antennae of forager bees): significantly decreased

-Ionone
Ki (AcerOBP6): 5.18 µM | IC50 (AcerOBP6): 5.45 µM

-Pinene
Ki (AcerOBP6): 6.35 µM | IC50 (AcerOBP6): 6.67 µM
